Structures can show the parent of a compound that is named as a salt. *1 amine or outer side, *2 acyl side, *3 side chain or, on linkers, in order; H or OH if unused. Where a SMILES comes first, the peptide text is derived from it. [ ]: non-standard residue; d: D form. X1 = NCCCC[C@H](N)CN([C@@H](CCCCN)C(=O)[*:2])[*:1]; Tle = CC(C)(C)[C@H](N)C(=O)O
How the values were obtained:
[1] = test system: hippocampal neurons from Ntsr1^WT/WT mice; assay: Intracellular calcium release (Fluo-4) in hippocampal neurons from Ntsr1^WT/WT mice; type: cell-based, mouse
NTSR1-Venus [2] = target: T1, NTSR1-Venus (Mus musculus, UniProt O88319); assay: NTSR1-Venus endocytosis in primary hippocampal neurons (Venus/EEA1 colocalization; live confocal imaging); type: cell-based
T1 construct: monitoring endogenous NTSR1-Venus receptor endocytosis could differentiate NTSR1 agonists; endogenous in cells; host or cells: primary hippocampal neurons from homozygous NTSR1-Venus knock-in mice (C57BL/6N background)
Experimental: To isolate hippocampal neurons, P0 pups were removed from the cage of NTSR1-Venus homozygous knock-in breeding pairs. […] Neurons were plated on Poly-D-Lysine (Sigma) coated surfaces at 100,000 cells per 12 mm coverslip (NeuVitro, Camas, WA, USA) in a 24-well plate for immunostaining or 50,000 cells per well of an 8 well chamber slide (Ibidi, Grafelfing, Germany) for calcium measurements. Plating media [Neurobasal A (Gibco, Grand Island, NY, USA), 1% FBS (Fisher Scientific), 2% B-27 (Gibco, Grand Island, NY, USA), 0.5 mM GlutaMAX (Gibco, Grand Island, NY, USA), and 1x Penicillin/Streptomycin (Invitrogen, Waltham, MA, USA)] was exchanged 1 h after plating to maintenance media (Neurobasal A, 2% B-27, 0.5 mM GlutaMAX, and 1x Penicillin/Streptomycin).

[3] = test system: Ntsr1^Venus/Venus and Ntsr1^WT/WT mice; assay: Locomotor activity in activity boxes after i.p. injection; type: in vivo, mouse
Experimental: Locomotor activity was measured using Plexiglas activity boxes (20 × 20 × 20 cm) surrounded by horizontal and vertical infrared sensor beams (Versamax Omnitech Electronics, Columbus, OH, USA) during the light phase. The total numbers of animals used in locomotion experiments were n = 16 Ntsr1^Venus/Venus and n = 15 Ntsr1^WT/WT mice. Animals were habituated to the room in singly housed cages with home bedding for 1 h, before being injected with either 0.9% saline, 0.2, 0.5, 1, 5 mg/kg, PD149163, dissolved in 0.9% saline, and returned to their home cages for 30 min. Then mice were placed in horizontally opposed chambers, and horizontal movement (cm) was measured over the course of 2 h, in bins of 10 min.
Having established evidence supporting functional NTSR1-Venus receptor signaling (Gq/Ca2+) and receptor endocytosis we next evaluated behavioral responses in these animals. […] First, when animals were not yet habituated to the activity chambers and only received saline injections, we observed somewhat higher activity counts for Ntsr1^Venus/Venus compared to Ntsr1^WT/WT animals (Supplementary Figure 1). […] A significant difference at 0.2 mg/kg and a trend that was not significant at higher doses (0.5, 1, or 5 mg/kg) was observed between Ntsr1^Venus/Venus and Ntsr1^WT/WT animals (Figure 2I). […]

NTSR1-Venus [4] = target: T1, NTSR1-Venus; assay: Multiphoton imaging of NTSR1-Venus internalization in acute SN/VTA brain slices; type: cell-based; conditions: 10 μM on slices recovered in 1 μM SR48692
Experimental: Male and female Ntsr1^Venus/Venus mice aged 5 weeks were anesthetized, and 250 μm-thick coronal slices containing substantia nigra pars compacta and ventral tegmental area were prepared. Cutting solution contained (in mM): 87 NaCl, 25 NaHCO3, 25 glucose, 75 sucrose, 2.5 KCl, 1.25 NaH2PO4, 0.5 CaCl2, and 7 MgCl2; bubbled with 5% CO2/95%O2; 4°C. Following cutting, slices were incubated in the same solution for 30 min at 33°C. For control experiments, slices were subsequently incubated in the same solution at room temperature until imaging. For antagonist experiments, slices were subsequently incubated in cutting solution with 1 μM SR48962 until imaging. SR48962 was prepared as a 1 mM stock in water.
Imaging solution referred to as aCSF contained (in mM): 125 NaCl, 2.5 KCl, 2 CaCl2, 1 MgCl2, 25 NaHCO3, 1.25 NaH2PO4, 25 glucose; bubbled with 5% CO2/95% O2; 31–34°C, ∼310 mOsm. For antagonist-only experiments, 1 μM SR48962 was added to the imaging solution. For antagonist plus agonist experiments, a baseline image was taken with no NTSR1 agonist or antagonist in the imaging solution, and subsequently, 10 μM PD149163 [prepared from a stock solution in water] was added to the imaging solution. As a precautionary measure, all components that were exposed to antagonist were rinsed first with 70% ethanol and then water. All components that were exposed to agonist were replaced between experiments.
For two-photon laser scanning microscopy (2PLSM), a 2-photon source (Coherent Ultra II, Santa Clara, CA, USA) was tuned to 920 nm for imaging. […] Both epi and transfluorescence were detected with R9110 photomultiplier tubes (Hamamatsu, Shizuoka, Japan). Laser power measured at the focal plane under the objective was between 8 and 34 mW. […]
To test whether NTSR1 receptors are indeed being bound by endogenous ligand in acute slice, we compared NTSR1 distribution in slices treated with the NTSR1 specific antagonist, SR48692 ([Gully et al., 1993]). […] NTSR1-Venus puncta were then quantified in the acquired image projections by counting vesicle-sized particles (Figure 5E). […]

T1 sequence (O88319 whole entry): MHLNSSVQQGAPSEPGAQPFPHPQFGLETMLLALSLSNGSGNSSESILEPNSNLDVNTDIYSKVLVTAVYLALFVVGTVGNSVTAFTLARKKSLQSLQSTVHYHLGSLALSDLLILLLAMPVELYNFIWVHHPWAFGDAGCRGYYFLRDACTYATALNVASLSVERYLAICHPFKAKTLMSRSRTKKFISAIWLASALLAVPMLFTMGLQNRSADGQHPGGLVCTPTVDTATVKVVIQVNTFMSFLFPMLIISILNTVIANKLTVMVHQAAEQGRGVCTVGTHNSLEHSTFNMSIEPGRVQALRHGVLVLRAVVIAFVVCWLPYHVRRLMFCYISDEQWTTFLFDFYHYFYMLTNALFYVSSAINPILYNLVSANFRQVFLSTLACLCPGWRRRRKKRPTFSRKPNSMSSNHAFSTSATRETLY

time course of NTSR1-Venus in early endosomes (NTSR1-Venus [2]; 1 μM, 5 to 60 min): remained stable
NTSR1-Venus internalization, live confocal imaging (NTSR1-Venus [2]; 1 μM, 20 min live imaging of hippocampal neurons): robust internalization of the receptor
percentage of endosomes containing NTSR1 after 60 min, PD149163 vs neurotensin (NTSR1-Venus [2]; 1 μM, 60 min): significantly higher percentage
NTSR1-Venus redistribution to endosomes (% EEA1 vesicles) (NTSR1-Venus [2]; 1 μM, within the first 5 min of agonist treatment): 92.7% ± 6.9
EC50 (NTSR1-Venus [2]; Ntsr1^Venus/Venus hippocampal neurons, 5 min of agonist treatment, read-out: EC50, NTSR1-Venus endocytosis (ratio of Venus and EEA1 positive to total EEA1 positive endosomes)): 465 nM
SMILES: CCOC(=O)[C@H](CC(C)C)NC(=O)[C@@H](NC(=O)[C@H](Cc1c[nH]c2ccccc12)NC(=O)[C@@H]1CCCN1C(=O)[C@H](CCCCN)NC[C@@H](N)CCCCN)C(C)(C)C [PD149163, PD149163 tetrahydrochloride hydrate] (H-[X1]PW[Tle]L-OEt; N-terminus and C-terminus assumed)
intracellular calcium peak increase ([1]; 0.1 μM): 2 fold
intracellular calcium peak increase ([1]; 1 μM): 2 fold
hypolocomotion in Ntsr1^Venus/Venus and Ntsr1^WT/WT animals ([3]; 0.5 mg/kg i.p., measured 30 min after injection): induced NTSR1 mediated hypolocomotion to a similar extent
total distance traveled over 2 h as compared to saline animals ([3]; i.p. 0.2, 0.5, 1, 5 mg/kg, both genotypes): dose-dependent decrease
vesicle-sized particle counts (NTSR1-Venus puncta) vs antagonist-only treated slices (NTSR1-Venus [4]): significantly higher than antagonist-only treated slices at 15, 30, 45, and 60 min
vesicle-sized particle counts (NTSR1-Venus puncta) vs control slices (NTSR1-Venus [4]): significantly higher than controls at 30, 45, and 60 min

— PMC9745132, “Visualization of real-time receptor endocytosis in dopamine neurons enabled by NTSR1-Venus knock-in mice” (Frontiers in Cellular Neuroscience, 2022)
